# Assay results published in publication PMC9658513, “Discovery of Compounds That Selectively Repress the Amyloidogenic Processing of the Amyloid Precursor Protein: Design, Synthesis and Pharmacological Evaluation of Diphenylpyrazoles” (International Journal of Molecular Sciences, 2022).
# Like-named read-outs stand apart in the source and are kept apart here.
# How the values were obtained:
# [1] = tested on: LC3; assay: Autophagic flux: LC3-I lipidation into LC3-II by Western blot; type: cell-based; details: Homo sapiens, 24 h, 0.1 µM (100 nM), SY5Y-APP^wt cells, vs control
# From the text: (§1) Previous work dedicated to compounds of family C [22] has underlined the effect of our compounds on autophagic flux and the lysosomal degradation pathways. More precisely, the role of the amino side chains and their number was highlighted. Therefore, we assessed whether the activity of compounds involved the modulation of lysosomal activities toward the accumulation of APP-CTFs and AICD. Thus, we studied the effect of a selection of compounds on the autophagic flux, more particularly, we evaluated the effect of compounds 24, 33, 34, 57, 65, 67, 70, and 71 on two markers associated with autophagy: p62 and LC3-I lipidation into LC3-II. To the previous selection of efficient compounds decreasing Aβ1–x production and increasing CTFα and AICD, we added compound 65 with no cytotoxicity at 100 µM. As a comparison, we also selected compound 57 with a hydroxymethyl substituent as a control. In addition to CQ, bafilomycin A, a well-known inhibitor of autophagic flux, was used as a control. Treatment with compounds 67 and 71 induced an increase in p62 expression by 2.5 and 4-fold, respectively, compared to the control condition (Figure 3). […] An increase in the two markers was also observed with compound 57, but to a smaller extent (1.7-fold for p62 and 2-fold for LC3-I/LC3-II).
# (§2) The human neuroblastoma cell line SY5Y-APP^695WT was maintained in Dulbecco’s modified Eagle medium (DMEM, high glucose, pyruvate—GIBCO, Life Technologies, Carlsbad, CA, USA) supplemented with 10% fetal bovine serum, 2 mM L-glutamine, 1 mM non-essential amino acids and penicillin/streptomycin (GIBCO, Life Technologies, Carlsbad, CA, USA) at 37 °C in a 5% CO2 humidified incubator [36]. For compound treatment, a 10 mM stock solution was diluted in freshly supplemented DMEM medium to obtain the precise final concentration of the drug. Cells were plated at a density of 5 × 10^5 cells per well into 12-well plates and cultured with 1 mL supplemented DMEM cell medium for 24 h before compound exposure. The following day, the cell medium was replaced with fresh medium containing the compounds diluted at the indicated concentrations. Cells were treated for 24 h. At the end of the treatments, the cell medium was collected and kept at −80 °C until use, cells were rinsed once with PBS and extracted in 100 µL of Laemmli buffer (10 mM Tris, 20% glycerol, and 2% sodium dodecyl sulfate) using a cell-scraper. The cell lysate was further sonicated (30 pulses of 0.5 s, 60 Hz) for 5 min. Total protein concentration was determined using the Pierce BCA Protein Assay Kit (Thermo Scientific, Waltham, MA, USA) according to the manufacturer’s instructions. Samples were stored at −80 °C until analysis.
# (§3) Cell protein lysates were prepared for Western blot analysis by diluting the sample with 1 volume of NuPAGE® lithium dodecyl sulfate (LDS) 2X sample buffer supplemented with 20% NuPAGE® sample reducing agents (Invitrogen). Samples were heated for 10 min at 100 °C. Ten µg of total proteins per well were loaded onto precast 4–12% Criterion XT Bis-Tris polyacrylamide gels (Bio-Rad) and electrophoresis was achieved after applying a tension of 150 V for 90 min using a Criterion electrophoresis cell with the NuPAGE® MOPS SDS running buffer (1X). Proteins were transferred to a nitrocellulose membrane of […] pore size (G&E Healthcare, Madison, WI, USA) using the Criterion blotting system and applying a tension of 100 V for 45 min. To resolve proteins of low molecular weights such as carboxy-terminal fragments of APP, 12% Criterion XT Bis-Tris polyacrylamide gels (Bio-Rad, Hercules, CA, USA) were used, and electrophoresis was performed for 70 min at 150 V in a NuPAGE® MES SDS running buffer (1X). Proteins were transferred to a nitrocellulose membrane of 0.2 µm pore size (G&E Healthcare, Madison, WI, USA) at 100 V for 40 min. Molecular weight calibration was achieved using molecular weight markers (Novex and Magic Marks, Life Technologies, Carlsbad, CA, USA). […]
# [2] = tested on: p62; assay: Autophagic flux: p62 expression by Western blot; type: cell-based, human; details: Homo sapiens, 24 h, 0.1 µM (100 nM), SY5Y-APP^wt cells, vs control
# From the text: as §1, §2, §3
# [3] = tested on: p62/LC3; assay: Ratio between p62 and LC3 expression levels; type: cell-based, human; details: 24 h, SY5Y-APP^wt cells
# From the text: Compounds from both series were selected to first determine the potential relationship between the repression of Aβ1–x production and the increased expression of LC3 and p62. […] We then also considered the ratio between the p62 and LC3 expression levels.
# Figure 3 Effect of compounds 24, 33, 34, 57, 65, 67, 70, and 71 on the autophagic flux in SY5Y-APP^wt cells. […] Cell lysates were immunolabeled with the following antibodies: p62 (a), LC3 (b), and β-actin. Statistical significance was set at * p < 0.05, ** p < […], *[…], **** p < 0.0001, and ns as not significant.
# [4] = tested on: Aβ1–40 peptide secretion; assay: Aβ1–40 secretion in cell medium by ELISA; type: cell-based, human; details: SY5Y-APP^WT cells, 24 h treatment, mean ± SD of at least three experiments in triplicate, read-out: Aβ1–40 IC50
# Description: (§4) The final and selected intermediate compounds were evaluated for their ability to modulate APP processing in the SH-SY5Y human neuroblastoma cell line stably expressing the neuronal isoform of human wild-type APP^695 (SY5Y-APP^WT), a well-established model for the study of APP metabolism. APP carboxy-terminal fragments (αCTFs and AICD) levels were assessed by Western blotting (WB). The effect of the reference and test compounds on αCTFs and AICD is expressed as the intensity of corresponding WB bands. The concentration of compounds able to increase 20-times αCTFs and AICD (C20) when compared to the control condition was calculated. Selected compounds were also evaluated for their ability to modulate the secretion of soluble APP fragments (sAPPα and sAPPβ). Aβ1–x levels (Aβ1–40 and Aβ1–42) after treatment with the reference and tested compounds were measured in the cell media by ELISA (Table 1). […] Selected hit compounds were then further evaluated for their ability to decrease the level of N-truncated Aβ peptides (Aβx–38, Aβx–40, and Aβx–42).
# as §2
# (§5) Conditioned media of SY5Y-APP^695WT collected at the end of treatments were centrifuged at 1000× g for 5 min to eliminate cell debris.
# (§6) Aβ1–40/Aβ1–42 peptides, Aβx–38/Aβx–40/Aβx–42, and sAPPα/sAPPβ concentrations in pg/mL were determined, respectively, using amyloid-beta 40 and 42 Human ELISA Kits (Invitrogen), the V-PLEX Plus Aβ Peptide Panel 1 (4G8) Kit (Meso Scale Diagnostics, MSD R©, Rockville, MD, USA), and the sAPPα/sAPPβ Multiplex Kit (Meso Scale Diagnostics, MSD R©, Rockville, MD, USA) according to the manufacturer’s instructions.
# [5] = tested on: Aβ1–42 peptide secretion; assay: Aβ1–42 secretion in cell medium by ELISA; type: cell-based, human; details: SY5Y-APP^WT cells, 24 h treatment, mean ± SD of at least three experiments in triplicate
# Description: as §4, §2, §5, §6
# [6] = tested on: αCTF (APP carboxy-terminal fragment); assay: αCTF level by Western blotting in SY5Y-APP^WT cells; type: cell-based, human; details: concentration increasing αCTF 20-fold vs untreated control, SY5Y-APP^WT cells, read-out: αCTF (C20)
# Description: as §4, §2
# as §3, with “USA). Protein transfer and quality were determined by a reversible Ponceau Red coloration (0.2% xylidine Ponceau Red and 3% trichloroacetic acid).” for “USA).”
# [7] = tested on: AICD (APP intracellular domain); assay: AICD level by Western blotting in SY5Y-APP^WT cells; type: cell-based, human; details: concentration increasing AICD 20-fold vs untreated control, read-out: AICD (C20)
# Description: as §4, §2
# as §3, with “USA). Protein transfer and quality were determined by a reversible Ponceau Red coloration (0.2% xylidine Ponceau Red and 3% trichloroacetic acid).” for “USA).”
# [8] = in vitro; type: cell-based, human; details: human
# Description: (§7) Cytotoxicity was measured using 3-(4,5-dimethylthiazol-2-yl)-5-(3-carboxymethoxyphenyl)-2-(4-sulfophenyl)-2H-tetrazolium (MTS) tests. SY5Y-APP^695WT cells were plated in a 96-well plate at 3 × 10^4 cells per well and allowed to attach for 24 h. Cells were then incubated for 72 h with 100 µL of DMEM with 10% SVF containing (or not) the defined concentration of drugs. Cytotoxicity was determined by using the colorimetric MTS assay (Cell Titer 96® Aqueous One Solution Cell Proliferation Assay-MTS Promega, Madison, WI, USA) according to the manufacturer’s instructions. Absorbance was read at 490 nm.
# [9] = tested on: SY5Y-APP^695WT cells; assay: in vitro; type: cell-based, human
# Description: as §7
IC50 ([4]; Homo sapiens),IC50 ([5]; Homo sapiens),IC50 [4],IC50 [5],Compound,EC (20-fold increase) ([6]; Homo sapiens),EC (20-fold increase) ([7]; Homo sapiens),CC50 at 72 h [8],EC (20-fold increase) [6],EC (20-fold increase) [7],CC50 [9],further results
–,–,12.4 ± 0.6 µM,13.2 ± 0.2 µM,"N′-[[3-[4-[3-(Dimethylamino)propyl]-3-[4-[3-(dimethylamino)propyl]phenyl] Pyrazol-1-yl]phenyl]methyl]-N,N,N′-trimethyl-propane-1,3-diamine [Compound 35]",–,–,–,5.1 µM,5.4 µM,> 100 µM,p62/LC3 ([3]; compound at 3 µM): ~1
–,–,4.2 ± 0.1 µM,6.1 ± 0.3 µM,"N′-[[4-[4-(Dimethylaminomethyl)-3-[4-[3-(dimethylamino)propyl]phenyl] Pyrazol-1-yl]phenyl]methyl]-N,N,N′-trimethyl-propane-1,3-diamine [Compound 32]",–,–,–,1.1 µM,1.8 µM,> 100 µM,–

# The next lines start with the compound.
Compound,IC50 ([4]; Homo sapiens),IC50 ([5]; Homo sapiens),IC50 [4],IC50 [5],EC (20-fold increase) ([6]; Homo sapiens),EC (20-fold increase) ([7]; Homo sapiens),CC50 at 72 h [8],EC (20-fold increase) [6],EC (20-fold increase) [7],CC50 [9],further results
"CO/C1=C\C(C)=C\[C@@H](C)[C@@H](O)[C@@H](C)C/C(C)=C/C=C/[C@H](OC)[C@@H]([C@@H](C)[C@@H](O)[C@H](C)[C@@]2(O)C[C@@H](O)[C@H](C)[C@@H](C(C)C)O2)OC1=O [Baf A1, bafilomycin A1, reference compound]",–,–,–,–,–,–,–,–,–,–,fold induction at 0.1 µM [1]: 4.68; fold induction at 0.1 µM [2]: 1.48; p62/LC3 ([3]; 0.1 µM (100 nM)): 0.31
"Cc1cn(-c2cccc(CN(C)CCCN(C)C)c2)nc1-c1cccc(CN(C)C)c1 [Compound 66, N′-[[3-[3-[3-(Dimethylaminomethyl)phenyl]-4-methyl-pyrazol-1-yl]phenyl]methyl]-N,N,N’-trimethyl-propane-1,3-diamine]",2.2 ± 0.3 µM,2.5 ± 1 µM,–,–,2.2 µM,2.4 µM,47 µM,–,–,–,–
"Cc1cn(-c2cccc(CN3CCN(C)CC3)c2)nc1-c1ccc(CN(C)CCCN(C)C)cc1 [Compound 68, [3-(Dimethylamino)propyl](methyl){[4-(4-methyl-1-{3-[(4-methylpiperazin-1-yl)methyl]phenyl}-1H-pyrazol-3-yl)phenyl]methyl}amine]",1.2 ± 0.1 µM,1.6 ± 0.1 µM,–,–,1 µM,1 µM,6 µM,–,–,–,–
"Cc1cn(-c2cccc(CN(C)CCCN(C)C)c2)nc1-c1cccc(CN(C)CCCN(C)C)c1 [Compound 72, N′-[[3-[1-[3-[[3-(Dimethylamino)propyl-methyl-amino]methyl]phenyl]-4-methyl-pyrazol-3-yl]phenyl]methyl]-N,N,N′-trimethyl-propane-1,3-diamine]",2.6 ± 0.2 µM,3.3 ± 0.1 µM,–,–,0.6 µM,0.8 µM,26 µM,–,–,–,–
